Calls of active or inactive are those of the source. The rule behind the calls is not given here.
Tests used:
[1] = Cytotoxicity against human peripheral blood leukocytes assessed as cell viability at 50 uM after 4 hrs by acridine orange/ethidium bromide staining based fluorescence microscopic method relative to control; parameters: species or system Leukocyte; conditions: read-out: Activity
[2] = Selectivity index, ratio of HC50 for human RBC to MIC for Staphylococcus aureus ATCC 25923
[3] = Cytotoxicity against human peripheral blood leukocytes assessed as cell viability at 50 uM after 24 hrs by acridine orange/ethidium bromide staining based fluorescence microscopic method relative to control; parameters: species or system Leukocyte; conditions: read-out: Activity
[4] = Selectivity index, ratio of HC50 for human RBC to MIC for Staphylococcus aureus
[5] = system: Escherichia coli; experiment: Induction of membrane permeabilization in Escherichia coli ATCC 25922 assessed as propidium iodide uptake preincubated up to 60 mins followed by propidium iodide addition by flow cytometry; assay type: functional
[6] = system: Staphylococcus aureus; experiment: Bactericidal activity against Staphylococcus aureus ATCC 25923 after 18 hrs by microdilution method; assay type: functional; conditions: ATCC 25923, 18 h, read-out: MBC=>99.9
[7] = system: Pseudomonas aeruginosa; experiment: Bactericidal activity against clinical isolates of Pseudomonas aeruginosa after 18 hrs by microdilution method; assay type: functional; conditions: read-out: MBC=>99.9
[8] = system: Escherichia coli; experiment: Induction of membrane permeabilization in Escherichia coli ATCC 25922 assessed as incipient damage at 0.25 uM after 1 hr by atomic force microscopic method; assay type: functional
[9] = Selectivity index, ratio of HC50 for human RBC to MIC for Klebsiella pneumoniae ATCC 13883
[10] = system: Escherichia coli; experiment: Bactericidal activity against Escherichia coli ATCC 25922 after 18 hrs by microdilution method; assay type: functional; conditions: ATCC 25922, 18 h, read-out: MBC=>99.9
[11] = system: Staphylococcus aureus; experiment: Antibacterial activity against clinical isolates of Staphylococcus aureus after 18 hrs by microdilution method; assay type: functional
[12] = system: Pseudomonas aeruginosa; experiment: Antibacterial activity against Pseudomonas aeruginosa ATCC 27853 after 18 hrs by microdilution method; assay type: functional; conditions: ATCC 27853, 18 h
[13] = system: Acinetobacter baumannii; experiment: Bactericidal activity against Acinetobacter baumannii ATCC 19606 after 18 hrs by microdilution method; assay type: functional; conditions: ATCC 19606 = CIP 70.34 = JCM 6841, 18 h, read-out: MBC=>99.9
[14] = system: Klebsiella pneumoniae; experiment: Bactericidal activity against clinical isolates of Klebsiella pneumoniae after 18 hrs by microdilution method; assay type: functional; conditions: read-out: MBC=>99.9
[15] = system: Klebsiella pneumoniae; experiment: Bactericidal activity against Klebsiella pneumoniae ATCC 13883 after 18 hrs by microdilution method; assay type: functional; conditions: ATCC 13883, 18 h, read-out: MBC=>99.9
[16] = system: Escherichia coli; experiment: Induction of membrane permeabilization in Escherichia coli ATCC 25922 assessed as loss of pili/flagella at MBC after 1 hr by atomic force microscopic method; assay type: functional
[17] = system: Escherichia coli; experiment: Antibacterial activity against clinical isolates of Escherichia coli after 18 hrs by microdilution method; assay type: functional
[18] = Selectivity index, ratio of HC50 for human RBC to MIC for Escherichia coli
[19] = system: Escherichia coli; experiment: Antibacterial activity against Escherichia coli ATCC 25922 after 18 hrs by microdilution method; assay type: functional; conditions: ATCC 25922, 18 h
[20] = Selectivity index, ratio of HC50 for human RBC to MIC for Klebsiella pneumoniae
[21] = system: Klebsiella pneumoniae; experiment: Antibacterial activity against Klebsiella pneumoniae ATCC 13883 after 18 hrs by microdilution method; assay type: functional; conditions: ATCC 13883, 18 h
[22] = system: Pseudomonas aeruginosa; experiment: Antibacterial activity against clinical isolates of Pseudomonas aeruginosa after 18 hrs by microdilution method; assay type: functional
[23] = Selectivity index, ratio of HC50 for human RBC to MIC for Pseudomonas aeruginosa ATCC 27853
[24] = system: Acinetobacter baumannii; experiment: Antibacterial activity against Acinetobacter baumannii ATCC 19606 after 18 hrs by microdilution method; assay type: functional; conditions: ATCC 19606 = CIP 70.34 = JCM 6841, 18 h
[25] = Selectivity index, ratio of HC50 for human RBC to MIC for Escherichia coli ATCC 25922
[26] = system: Escherichia coli; experiment: Induction of membrane permeabilization in Escherichia coli ATCC 25922 assessed as massive damage at 0.5 to 1 uM after 1 hr by atomic force microscopic method; assay type: functional
[27] = Genotoxicity in human peripheral blood leukocytes assessed as DNA damage up to 100 uM up to 24 hrs by alkaline comet assay; assay type: toxicity, cell-based; conditions: leukocyte
[28] = system: Acinetobacter baumannii; experiment: Bactericidal activity against clinical isolates of Acinetobacter baumannii after 18 hrs by microdilution method; assay type: functional; conditions: read-out: MBC=>99.9
[29] = Selectivity index, ratio of HC50 for human RBC to MIC for Pseudomonas aeruginosa
[30] = system: Escherichia coli; experiment: Bactericidal activity against clinical isolates of Escherichia coli after 18 hrs by microdilution method; assay type: functional; conditions: read-out: MBC=>99.9
[31] = system: Escherichia coli; experiment: Growth inhibition of Escherichia coli ATCC 25922 measured every 10 mins for 4 hrs; assay type: functional
[32] = system: Escherichia coli; experiment: Induction of membrane permeabilization in Escherichia coli ATCC 25922 assessed as surface indentations at MIC after 1 hr by atomic force microscopic method; assay type: functional
[33] = system: Klebsiella pneumoniae; experiment: Antibacterial activity against clinical isolates of Klebsiella pneumoniae after 18 hrs by microdilution method; assay type: functional
[34] = Selectivity index, ratio of HC50 for human RBC to MIC for Acinetobacter baumannii
[35] = Cytotoxicity against human peripheral blood leukocytes assessed as cell viability at 100 uM after 24 hrs by acridine orange/ethidium bromide staining based fluorescence microscopic method relative to control; parameters: species or system Leukocyte; conditions: read-out: Activity
[36] = system: Staphylococcus aureus; experiment: Growth inhibition of Staphylococcus aureus ATCC 25923 measured every 10 mins for 4 hrs; assay type: functional
[37] = system: Escherichia coli; experiment: Induction of membrane permeabilization in Escherichia coli ATCC 25922 assessed as bleb formation at MIC after 1 hr by atomic force microscopic method; assay type: functional
[38] = system: Escherichia coli; experiment: Induction of membrane permeabilization in Escherichia coli ATCC 25922 assessed as massive cell disruption/collapse at MBC after 1 hr by atomic force microscopic method; assay type: functional
[39] = system: Pseudomonas aeruginosa; experiment: Bactericidal activity against Pseudomonas aeruginosa ATCC 27853 after 18 hrs by microdilution method; assay type: functional; conditions: ATCC 27853, 18 h, read-out: MBC=>99.9
[40] = system: Acinetobacter baumannii; experiment: Antibacterial activity against clinical isolates of Acinetobacter baumannii after 18 hrs by microdilution method; assay type: functional
[41] = Selectivity index, ratio of HC50 for human RBC to MIC for Acinetobacter baumannii ATCC 19606
[42] = system: Staphylococcus aureus; experiment: Antibacterial activity against Staphylococcus aureus ATCC 25923 after 18 hrs by microdilution method; assay type: functional; conditions: ATCC 25923, 18 h
[43] = system: Escherichia coli; experiment: Induction of membrane permeabilization in Escherichia coli ATCC 25922 assessed as formation of pores/cavities at MIC after 1 hr by atomic force microscopic method; assay type: functional
[44] = system: Staphylococcus aureus; experiment: Bactericidal activity against clinical isolates of Staphylococcus aureus after 18 hrs by microdilution method; assay type: functional; conditions: read-out: MBC=>99.9
[45] = Cytotoxicity against human peripheral blood leukocytes assessed as cell viability at 100 uM after 4 hrs by acridine orange/ethidium bromide staining based fluorescence microscopic method relative to control; parameters: species or system Leukocyte; conditions: read-out: Activity
[46] = system: Escherichia coli; experiment: Induction of membrane permeabilization in Escherichia coli ATCC 25922 assessed as propidium iodide uptake at MIC preincubated for 15 mins followed by propidium iodide addition by flow cytometry relative to control; assay type: functional

Substance: H-KIAKGALKALKIAKVALKAL-NH2
- viability at 4 h, 50 µM [1]: 92%
- Selectivity Index [2]: 2 to 4
- viability at 24 h, 50 µM [3]: 92%
- Selectivity Index [4]: 4 to 8
- IC50 [5]: 500 nM
- MBC [6]: 8 to 16 µM
- MBC [7]: 4 µM
- Activity [8]: Active
- Selectivity Index [9]: 15
- MBC [10]: 0.5 to 1 µM
- MIC [11]: 4 to 8 µM
- MIC [12]: 2 µM
- MBC [13]: 1 µM
- MBC [14]: 8 µM
- MBC [15]: 2 µM
- Activity [16]: Active
- MIC [17]: 4 µM
- Selectivity Index [18]: 7
- MIC [19]: 0.25 to 0.5 µM
- Selectivity Index [20]: 7
- MIC [21]: 2 µM
- MIC [22]: 2 to 4 µM
- Selectivity Index [23]: 15
- MIC [24]: 0.5 to 1 µM
- Selectivity Index [25]: 60 to 120
- Activity [26]: Active
- Activity [27]: Non-Toxic
- MBC [28]: 1 µM
- Selectivity Index [29]: 7 to 15
- MBC [30]: 8 µM
- IC50 [31]: 350 nM
- Activity [32]: Active
- MIC [33]: 4 µM
- Selectivity Index [34]: 60
- viability at 24 h, 100 µM [35]: 83%
- IC50 [36]: 800 nM
- Activity [37]: Active
- Activity [38]: Active
- MBC [39]: 4 µM
- MIC [40]: 0.5 µM
- Selectivity Index [41]: 30 to 60
- MIC [42]: 8 to 16 µM
- Activity [43]: Active
- MBC [44]: 8 µM
- viability at 4 h, 100 µM [45]: 89%

Substance: H-KIALKALKALKALGKALKAL-NH2
- Selectivity Index [2]: 2.5
- Selectivity Index [4]: 2 to 6
- IC50 [5]: 200 nM
- MBC [6]: 4 µM
- MBC [7]: 32 µM
- Selectivity Index [9]: 2 to 6
- MBC [10]: 2 to 4 µM
- MIC [11]: 2 to 4 µM
- MIC [12]: 8 to 16 µM
- MBC [13]: 2 µM
- MBC [14]: 32 to 64 µM
- MBC [15]: 4 µM
- Activity [16]: Active
- MIC [17]: 32 µM
- Selectivity Index [18]: < 1
- MIC [19]: 1 to 2 µM
- Selectivity Index [20]: < 1
- MIC [21]: 2 to 4 µM
- MIC [22]: 32 µM
- Selectivity Index [23]: < 1
- MIC [24]: 2 µM
- Selectivity Index [25]: 5 to 10
- MBC [28]: 32 µM
- Selectivity Index [29]: < 1
- MBC [30]: 32 µM
- IC50 [31]: 350 nM
- Activity [32]: Active
- MIC [33]: 16 to 32 µM
- Selectivity Index [34]: < 1
- IC50 [36]: 400 nM
- Activity [37]: Active
- Activity [38]: Active
- MBC [39]: 16 µM
- Activity [46]: >80%
- MIC [40]: 16 to 32 µM
- Selectivity Index [41]: 5
- MIC [42]: 4 µM
- Activity [43]: Active
- MBC [44]: 4 to 8 µM

Substance: H-KIGKALGKALKALGKALGKA-NH2
- Selectivity Index [2]: < 1
- Selectivity Index [4]: < 1
- IC50 [5]: 1400 nM
- MBC [6]: 32 µM
- MBC [7]: 32 µM
- Selectivity Index [9]: < 1
- MBC [10]: 16 µM
- MIC [11]: 16 µM
- MIC [12]: 8 µM
- MBC [13]: 2 µM
- MBC [14]: 32 µM
- MBC [15]: 32 µM
- Activity [16]: Active
- MIC [17]: 32 to 64 µM
- Selectivity Index [18]: < 1
- MIC [19]: 8 µM
- Selectivity Index [20]: < 1
- MIC [21]: 16 µM
- MIC [22]: 16 to 32 µM
- Selectivity Index [23]: 2
- MIC [24]: 2 µM
- Selectivity Index [25]: 2
- MBC [28]: 64 µM
- Selectivity Index [29]: < 1
- MBC [30]: 64 µM
- IC50 [31]: 700 nM
- Activity [32]: Active
- MIC [33]: 16 µM
- Selectivity Index [34]: < 1
- IC50 [36]: 2300 nM
- Activity [37]: Active
- Activity [38]: Active
- MBC [39]: 16 µM
- Activity [46]: >80%
- MIC [40]: 32 to 64 µM
- Selectivity Index [41]: 5
- MIC [42]: 16 µM
- Activity [43]: Active
- MBC [44]: 16 to 32 µM

From ChEMBL document CHEMBL4020848, “Antibacterial Activity Affected by the Conformational Flexibility in Glycine-Lysine Based α-Helical Antimicrobial Peptides” (J Med Chem, 2018)
